{"source": "patent US20260242759A1", "about": "“GQ/11 Protein Peptidomimetics” (Vrije Universiteit Brussel, priority 2022, published 2026)", "key": {"[1]": {"target": "T1, human ghrelin receptor (GHSR) (Homo sapiens, UniProt Q92847, C146S/C304S)", "T1 construct": "integrin α5 fragment (N); polyhistidine tag (C); made in house; host or cells: E. coli BL21(DE3)", "T1 sequence (Q92847 whole entry C146S/C304S, the tested form may be a part)": "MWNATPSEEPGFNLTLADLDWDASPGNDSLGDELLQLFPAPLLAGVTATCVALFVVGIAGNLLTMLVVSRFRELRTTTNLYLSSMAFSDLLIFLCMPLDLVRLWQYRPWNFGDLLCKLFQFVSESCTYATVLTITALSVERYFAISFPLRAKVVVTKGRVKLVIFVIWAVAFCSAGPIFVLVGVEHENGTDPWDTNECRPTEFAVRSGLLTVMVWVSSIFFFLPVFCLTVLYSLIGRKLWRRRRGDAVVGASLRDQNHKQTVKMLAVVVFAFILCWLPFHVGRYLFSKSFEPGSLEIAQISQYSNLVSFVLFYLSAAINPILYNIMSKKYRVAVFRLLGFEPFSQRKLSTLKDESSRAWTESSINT", "experiment": "Bimane fluorescence assay on purified ghrelin receptor in nanodiscs", "type": "biochemical", "settings": "bimane labeled GHSR, in presence of JMV1843", "method_in_brief": "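E. coli-expressed human ghrelin receptor (cysmin mutant, N-terminal integrin α5 fragment, C-terminal His-tag) purified into lipid nanodiscs and labelled with monobromobimane at Cys255 (16 h, 4° C, dark). Labelled receptor (0.2 μM final) incubated 2 h at 20° C with or without JMV1843 (20 μM) and peptidomimetics at varying molar ratios, or Gαqβ1γ2 at 1:5 receptor:G protein; emission scanned 440–520 nm with excitation at 380 nm for λmax shift.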"}, "HEK293 1C8 cells": {"test_system": "HEK293 1C8 cells", "experiment": "MTT cytotoxicity assay", "type": "cell-based, human", "settings": "varying concentrations up to 40 μM, 3 h 45 min", "method": "Cells were washed two times with PBS and incubated with 3-(4,5-dimethylthiazol-2-yl)-2,5-diphenyltetrazolium bromide (MTT) during 3 h, at 37° C. Afterwards, cells were washed once with PBS and then incubated for 10 min with DMSO. Plates were analysed with a Tecan Spark 10 M microplate reader.\nAn MTT assay was used to assess the cytotoxicity of the non-fluorescent Gq/11 peptidomimetics of Example 5. An MTT assay is a colorimetric test that evaluates the cell metabolic activity and reflects the cell viability."}}, "note": "Non-standard residues stand in square brackets, D forms with d. Residues, ends and D or L forms follow the SMILES beside them. Cha = N[C@@H](CC1CCCCC1)C(=O)O", "data": [{"smiles": "CC[C@H](C)[C@H](NC(=O)[C@@H](NC(=O)[C@H](CC(=O)O)NC(=O)[C@H](CCCCN)NC(=O)[C@@H](NC(=O)[C@H](C)NC(=O)[C@H](C)NC(=O)[C@H](Cc1ccccc1)NC(=O)[C@H](CCCCN)NC(=O)[C@H](CCCCN)NC(=O)[C@H](CCCCN)NC(C)=O)C(C)C)[C@@H](C)O)C(=O)N[C@@H](CC(C)C)C(=O)N[C@@H](CCC(N)=O)C(=O)N[C@@H](CC(C)C)C(=O)N[C@@H](CC(N)=O)C(=O)N[C@@H](CC(C)C)C(=O)N[C@@H](CCCCN)C(=O)N[C@@H](CCC(=O)O)C(=O)N[C@@H](Cc1ccc(O)cc1)C(=O)N[C@@H](CC(N)=O)C(=O)N[C@@H](CC1CCCCC1)C(=O)N[C@H](C(=O)O)C(C)C", "note": "[SBL-GQ-04] (Ac-KKKFAAVKDTILQLNLKEYN[Cha]V-OH)", "values": [{"measurement": "conformational change in the receptor", "setting": "[1]", "value": "not able to induce a conformational change"}, {"measurement": "cytotoxicity / viability", "setting": "HEK293 1C8 cells", "value": "No cytotoxicity"}]}]}
